Our source for the IC50 values is patent US20250034167A1, “HETEROCYCLIC COMPOUNDS AND METHODS OF USE” (AMGEN INC., priority 2021, published 2025).

Sequence of His-tagged KRAS G12D protein (P01116 1-188 isoform P01116-2 G12D): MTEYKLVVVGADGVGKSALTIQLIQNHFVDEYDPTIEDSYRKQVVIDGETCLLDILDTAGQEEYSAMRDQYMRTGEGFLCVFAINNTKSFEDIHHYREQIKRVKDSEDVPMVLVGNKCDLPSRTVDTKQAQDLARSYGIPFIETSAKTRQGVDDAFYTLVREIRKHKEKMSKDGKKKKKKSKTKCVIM

The first experiment deals with Phosphorylation of ERK1/2 in AsPC-1 cells. In words: Phospho-ERK1/2 MSD Assay. The class given is cell-based. The note with it: Homo sapiens, ASPC1, 2 h, read-out: 2 h p-ERK (AsPC-1 cells), IC50, AsPC-1 cells, 2 h compound treatment. The protocol: Sixteen hours prior to compound treatment, AsPC-1 cells were seeded in 96-well cell culture plates at a density of 25,000 cells/well and incubated at 37° C., 5% CO2. A compound dose-response titration was diluted in growth media, added to appropriate wells of a cell culture plate, and then incubated at 37° C., 5% CO2 for 2 hours.
As to `CCc1c(F)ccc2cc(O)cc(-c3ncc4c(N5CC(C)CC(O)C5)nc(OC[C@@]56CCCN5C[C@H](F)C6)nc4c3F)c12` (mixture of isomers) [Example 96, rac-(3R,5S)-1-(7-(8-Ethyl-7-fluoro-3-hydroxynaphthalen-1-yl)-8-fluoro-2-(((2R,7aS)-2-fluorotetrahydro-1H-pyrrolizin-7a(5H)-yl)methoxy)pyrido[4,3-d]pyrimidin-4-yl)-5-methylpiperidin-3-ol], the IC50 stood at 119 nM.
Same read-out and setting: next, `CCc1c(F)ccc2cc(O)cc(-c3ncc4c(N5C[C@@H](O)C[C@@H](F)C5)nc(OC[C@@]56CCCN5C[C@H](F)C6)nc4c3F)c12` (mixture of isomers) [Example 115, rac-(3S,5R)-1-(7-(8-Ethyl-7-fluoro-3-hydroxynaphthalen-1-yl)-8-fluoro-2-(((2R,7aS)-2-fluorotetrahydro-1H-pyrrolizin-7a(5H)-yl)methoxy)pyrido[4,3-d]pyrimidin-4-yl)-5-fluoropiperidin-3-ol]: 83 nM.
Turning to `CCc1c(F)ccc2cc(O)cc(-c3ncc4c(N5CCC[C@@](C)(NC(C)=O)C5)nc(OC[C@@]56CCCN5C[C@H](F)C6)nc4c3F)c12` [Example 76, N-((R)-1-(7-(8-Ethyl-7-fluoro-3-hydroxynaphthalen-1-yl)-8-fluoro-2-(((2R,7aS)-2-fluorotetrahydro-1H-pyrrolizin-7a(5H)-yl)methoxy)pyrido[4,3-d]pyrimidin-4-yl)-3-methylpiperidin-3-yl)acetamide], the IC50 was 1100 nM.
The same measure, in the same setting: for `CCc1c(F)ccc2cc(O)cc(-c3ncc4c(N5CCC[C@@](C)(NC(=O)OC)C5)nc(OC[C@@]56CCCN5C[C@H](F)C6)nc4c3F)c12` [Example 77, Methyl ((R)-1-(7-(8-ethyl-7-fluoro-3-hydroxynaphthalen-1-yl)-8-fluoro-2-(((2R,7aS)-2-fluorotetrahydro-1H-pyrrolizin-7a(5H)-yl)methoxy)pyrido[4,3-d]pyrimidin-4-yl)-3-methylpiperidin-3-yl)carbamate] the value was 1530 nM.
`CCc1c(F)ccc2cc(O)cc(-c3ncc4c(N5CCC[C@@H](NC(=O)OC)C5)nc(OC[C@@]56CCCN5C[C@H](F)C6)nc4c3F)c12` [Example 78, Methyl ((R)-1-(7-(8-ethyl-7-fluoro-3-hydroxynaphthalen-1-yl)-8-fluoro-2-(((2R,7aS)-2-fluorotetrahydro-1H-pyrrolizin-7a(5H)-yl)methoxy)pyrido[4,3-d]pyrimidin-4-yl)piperidin-3-yl)carbamate]: the IC50 was 244 nM.
On the same count and under the same terms, next, `CCc1c(F)ccc2cc(O)cc(-c3ncc4c(N5CC(n6ccnc6)C5)nc(OC[C@@]56CCCN5C[C@H](F)C6)nc4c3F)c12` [Example 91, 4-(4-(3-(1H-Imidazol-1-yl)azetidin-1-yl)-8-fluoro-2-(((2R,7aS)-2-fluorotetrahydro-1H-pyrrolizin-7a(5H)-yl)methoxy)pyrido[4,3-d]pyrimidin-7-yl)-5-ethyl-6-fluoronaphthalen-2-ol]: 5130 nM; `CCc1c(F)ccc2cc(O)cc(-c3ncc4c(N5CCCC(=O)CC5)nc(OC[C@@]56CCCN5C[C@H](F)C6)nc4c3F)c12` [Example 95, 1-(7-(8-Ethyl-7-fluoro-3-hydroxynaphthalen-1-yl)-8-fluoro-2-(((2R,7aS)-2-fluorotetrahydro-1H-pyrrolizin-7a(5H)-yl)methoxy)pyrido[4,3-d]pyrimidin-4-yl)azepan-4-one]: 74 nM.
Still for that read-out and setting: for `CCc1c(F)ccc2cc(O)cc(-c3ncc4c(N5CCCCC(=O)C5)nc(OC[C@@]56CCCN5C[C@H](F)C6)nc4c3F)c12` [Example 127, 1-(7-(8-Ethyl-7-fluoro-3-hydroxynaphthalen-1-yl)-8-fluoro-2-(((2R,7aS)-2-fluorotetrahydro-1H-pyrrolizin-7a(5H)-yl)methoxy)pyrido[4,3-d]pyrimidin-4-yl)azepan-3-one] the value was 8 nM.
Same read-out and setting: next, `CCc1c(F)ccc2cc(O)cc(-c3ncc4c(N5CCC[C@@H](CO)C5)nc(OC[C@@]56CCCN5C[C@H](F)C6)nc4c3F)c12` [Example 128, 5-Ethyl-6-fluoro-4-(8-fluoro-2-(((2R,7aS)-2-fluorotetrahydro-1H-pyrrolizin-7a(5H)-yl)methoxy)-4-((R)-3-(hydroxymethyl)piperidin-1-yl)pyrido[4,3-d]pyrimidin-7-yl)naphthalen-2-ol]: 293 nM; `CCc1c(F)ccc2cc(O)cc(-c3ncc4c(N5CCC=CC(=O)C5)nc(OC[C@@]56CCCN5C[C@H](F)C6)nc4c3F)c12` [Example 134, 1-(7-(8-Ethyl-7-fluoro-3-hydroxynaphthalen-1-yl)-8-fluoro-2-(((2R,7aS)-2-fluorotetrahydro-1H-pyrrolizin-7a(5H)-yl)methoxy)pyrido[4,3-d]pyrimidin-4-yl)-1,2,6,7-tetrahydro-3H-azepin-3-one]: 259 nM; `CCc1c(F)ccc2cc(O)cc(-c3ncc4c(N5CCCC(O)(C(F)(F)F)C5)nc(OC[C@@]56CCCN5C[C@H](F)C6)nc4c3F)c12` (stereo partly drawn) [Example 156, 1-(7-(8-Ethyl-7-fluoro-3-hydroxy-naphthalen-1-yl)-8-fluoro-2-(((2R,7aS)-2-fluorotetrahydro-1H-pyrrolizin-7a(5H)-yl)methoxy)pyrido[4,3-d]pyrimidin-4-yl)-3-(trifluoromethyl) piperidin-3-ol]: 172 nM.
As to `CCc1c(F)ccc2cc(O)cc(-c3ncc4c(N5CCCC(O)(C6CC6)C5)nc(OC[C@@]56CCCN5C[C@H](F)C6)nc4c3F)c12` (stereo partly drawn) [Example 157, 3-Cyclopropyl-1-(7-(8-ethyl-7-fluoro-3-hydroxy-naphthalen-1-yl)-8-fluoro-2-(((2R,7aS)-2-fluorotetrahydro-1H-pyrrolizin-7a(5H)-yl)methoxy)pyrido[4,3-d]pyrimidin-4-yl)piperidin-3-ol], the IC50 was found to be 1240 nM.
As to `NS(=O)(=O)[C@@H]1CCCN(c2nc(OC[C@@]34CCCN3C[C@H](F)C4)nc3c(F)c(-c4cc(O)cc5ccc(F)c(F)c45)ncc23)C1` [Example 165, (R)-1-(7-(7,8-Difluoro-3-hydroxynaphthalen-1-yl)-8-fluoro-2-(((2R,7aS)-2-fluorotetrahydro-1H-pyrrolizin-7a(5H)-yl)methoxy)pyrido[4,3-d]pyrimidin-4-yl)piperidine-3-sulfonamide], the IC50 stood at 1160 nM.
As for `CCc1c(F)ccc2cc(O)cc(-c3ncc4c(N5CCC[C@@](C)(O)C5)nc(OC[C@@]56CCCN5C[C@H](F)C6)nc4c3Cl)c12` [Example 168, (R)-1-(8-Chloro-7-(8-ethyl-7-fluoro-3-hydroxynaphthalen-1-yl)-2-(((2R,7aS)-2-fluorotetrahydro-1H-pyrrolizin-7a(5H)-yl)methoxy)pyrido[4,3-d]pyrimidin-4-yl)-3-methylpiperidin-3-ol], the IC50 was found to be 34 nM.
On to `CCc1c(F)ccc2cc(O)cc(-c3ncc4c(N5CCC[C@@](C)(O)C5)nc(OC[C@@]56CCCN5C[C@H](F)C6)nc4c3C)c12` [Example 169, (R)-1-(7-(8-Ethyl-7-fluoro-3-hydroxynaphthalen-1-yl)-2-(((2R,7aS)-2-fluorotetrahydro-1H-pyrrolizin-7a(5H)-yl)methoxy)-8-methylpyrido[4,3-d]pyrimidin-4-yl)-3-methylpiperidin-3-ol], for which the IC50 is 40 nM.
In the case of `CCc1c(F)ccc2cc(O)cc(-c3cc4nc(OC[C@@]56CCCN5C[C@H](F)C6)nc(N5CCC[C@@](C)(O)C5)c4cn3)c12` [Example 170, (R)-1-(7-(8-Ethyl-7-fluoro-3-hydroxynaphthalen-1-yl)-2-(((2R,7aS)-2-fluorotetrahydro-1H-pyrrolizin-7a(5H)-yl)methoxy)pyrido[4,3-d]pyrimidin-4-yl)-3-methyl-piperidin-3-ol], the IC50 turned out to be 18 nM.
On to `CCc1c(F)ccc2cc(O)cc(-c3ncc4c(N5CCC[C@@](C)(O)C5)nc(OCC5(CN(C)C)CC5)nc4c3F)c12` [Example 180, (R)-1-(2-((1-((Dimethylamino)methyl)cyclopropyl)methoxy)-7-(8-ethyl-7-fluoro-3-hydroxynaphthalen-1-yl)-8-fluoropyrido[4,3-d]pyrimidin-4-yl)-3-methylpiperidin-3-ol], for which the IC50 was 12 nM.

Staying with this experiment, now noted: Homo sapiens, ASPC1, read-out: 2 h p-ERK (AsPC-1 cells), IC50; AsPC-1 cells, 2 h compound treatment.
As to `[2H]C([2H])([2H])[C@@]1(O)CCCN(c2nc(OC[C@@]34CCCN3C[C@H](F)C4)nc3c(F)c(-c4cc(O)cc5ccc(F)c(CC)c45)ncc23)C1` [Example 176, (R)-1-(7-(8-Ethyl-7-fluoro-3-hydroxynaphthalen-1-yl)-8-fluoro-2-(((2R,7aS)-2-fluorotetrahydro-1H-pyrrolizin-7a(5H)-yl)methoxy)pyrido[4,3-d]pyrimidin-4-yl)-3-(methyl-d3)piperidin-3-ol], the IC50 was 5 nM.
Consider `[2H]C([2H])([2H])[C@]1(O)CCCN(c2nc(OC[C@@]34CCCN3C[C@H](F)C4)nc3c(F)c(-c4cc(O)cc5ccc(F)c(CC)c45)ncc23)C1` [Example 177, (S)-1-(7-(8-Ethyl-7-fluoro-3-hydroxynaphthalen-1-yl)-8-fluoro-2-(((2R,7aS)-2-fluorotetrahydro-1H-pyrrolizin-7a(5H)-yl)methoxy)pyrido[4,3-d]pyrimidin-4-yl)-3-(methyl-d3)piperidin-3-ol], for which the IC50 turned out to be 109 nM.
Take `CCc1c(F)ccc2cc(O)cc(-c3ncc4c(N5CCC[C@@](C)(O)C5)nc(OC[C@]56CCCN5C[C@@H](F)C6)nc4c3F)c12` [Example 178, (R)-1-(7-(8-Ethyl-7-fluoro-3-hydroxynaphthalen-1-yl)-8-fluoro-2-(((2S,7aR)-2-fluorotetrahydro-1H-pyrrolizin-7a(5H)-yl)methoxy)pyrido[4,3-d]pyrimidin-4-yl)-3-methylpiperidin-3-ol bis(2,2,2-trifluoroacetate)]: the IC50 stood at 8 nM.

Another experiment concerns the target His-tagged KRAS G12D protein (Homo sapiens, UniProt P01116, G12D). Put plainly: biochemical.
Conditions: not given
In turn, `CCc1c(F)ccc2cc(O)cc(-c3ncc4c(N5CC(C)CC(O)C5)nc(OC[C@@]56CCCN5C[C@H](F)C6)nc4c3F)c12` (mixture of isomers) [Example 96, rac-(3R,5S)-1-(7-(8-Ethyl-7-fluoro-3-hydroxynaphthalen-1-yl)-8-fluoro-2-(((2R,7aS)-2-fluorotetrahydro-1H-pyrrolizin-7a(5H)-yl)methoxy)pyrido[4,3-d]pyrimidin-4-yl)-5-methylpiperidin-3-ol] yielded an IC50 of 5 nM.
The same measure, in the same setting: next, `CCc1c(F)ccc2cc(O)cc(-c3ncc4c(N5C[C@@H](O)C[C@@H](F)C5)nc(OC[C@@]56CCCN5C[C@H](F)C6)nc4c3F)c12` (mixture of isomers) [Example 115, rac-(3S,5R)-1-(7-(8-Ethyl-7-fluoro-3-hydroxynaphthalen-1-yl)-8-fluoro-2-(((2R,7aS)-2-fluorotetrahydro-1H-pyrrolizin-7a(5H)-yl)methoxy)pyrido[4,3-d]pyrimidin-4-yl)-5-fluoropiperidin-3-ol]: 3 nM.
